Test results reported in ChEMBL document CHEMBL1201862, “PubChem BioAssay data set” (2004).
Activity calls are given as the source filed them.

Tests used:
[1] = biological target: T1, Orexin/Hypocretin receptor type 1 (Homo sapiens, UniProt O43613); experiment: (§1) Fluorescence-based cell-based high throughput dose response assay for antagonists of the orexin 1 receptor (OX1R; HCRTR1). [Related pubchem assays (depositor defined):AID434989, AID435008, AID463079, AID485270, AID492963, AID492964, AID492965, AID493232, AID504717, AID504718]; assay type: functional
T1 sequence (O43613 whole entry): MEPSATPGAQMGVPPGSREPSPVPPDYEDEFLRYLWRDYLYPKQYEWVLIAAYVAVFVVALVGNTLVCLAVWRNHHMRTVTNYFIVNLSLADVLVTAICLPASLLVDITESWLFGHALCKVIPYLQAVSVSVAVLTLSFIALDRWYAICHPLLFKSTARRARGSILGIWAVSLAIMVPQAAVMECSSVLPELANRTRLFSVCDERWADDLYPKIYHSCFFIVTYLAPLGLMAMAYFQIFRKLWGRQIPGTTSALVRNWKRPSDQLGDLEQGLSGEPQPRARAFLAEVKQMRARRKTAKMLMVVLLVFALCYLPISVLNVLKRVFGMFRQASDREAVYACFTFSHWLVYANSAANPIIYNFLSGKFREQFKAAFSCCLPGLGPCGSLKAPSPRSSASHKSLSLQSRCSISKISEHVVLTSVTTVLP

[2] = (§2) Counterscreen for antagonists of the orexin 1 receptor (OX1R; HCRTR1): Fluorescence-based cell-based high throughput dose response assay to identify antagonists of the parental CHO cell line. [Related pubchem assays (depositor defined):AID434989, AID435008, AID463079, AID485270, AID492963, AID492964, AID492965, AID493232, AID504699, AID504701]; assay type: functional
[3] = biological target: T2, Orexin receptor type 2 (Homo sapiens, UniProt O43614); experiment: Counterscreen assay for antagonists of the orexin 1 receptor (OX1R; HCRTR1): Homogeneous Time Resolved Fluorescence (HTRF)-based cell-based dose response assay for antagonists of the orexin 2 receptor (OX2R; HCRTR2), run by assay provider.; assay type: functional
T2 sequence (O43614 whole entry): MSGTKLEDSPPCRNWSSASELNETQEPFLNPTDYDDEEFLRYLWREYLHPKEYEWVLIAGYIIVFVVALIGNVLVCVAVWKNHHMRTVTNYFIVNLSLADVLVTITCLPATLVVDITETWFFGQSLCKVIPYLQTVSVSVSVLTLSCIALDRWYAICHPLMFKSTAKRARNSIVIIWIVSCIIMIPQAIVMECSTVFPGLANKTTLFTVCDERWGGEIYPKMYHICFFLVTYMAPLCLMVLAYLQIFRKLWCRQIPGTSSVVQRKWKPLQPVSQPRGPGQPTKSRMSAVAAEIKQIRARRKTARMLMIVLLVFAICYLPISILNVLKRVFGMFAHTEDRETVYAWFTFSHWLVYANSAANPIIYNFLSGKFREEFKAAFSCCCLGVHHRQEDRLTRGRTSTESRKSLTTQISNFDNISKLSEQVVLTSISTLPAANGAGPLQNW

[4] = biological target: T1, Orexin/Hypocretin receptor type 1; experiment: as §1, with “Homogeneous Time Resolved Fluorescence (HTRF)-based” for “Fluorescence-based”; assay type: functional
[5] = tested on: CHO-K1; experiment: as §2, with “Homogeneous time resolved fluorescence (HTRF)-based” for “Fluorescence-based”, “cell-based” for “cell-based high throughput”, “CHO-K1” for “CHO”; assay type: functional; details: Cricetulus griseus;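 further: potency for inhibition of ATP-stimulated IP1 production as antagonists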
[6] = biological target: T2, Orexin receptor type 2; experiment: Counterscreen assay for antagonists of the orexin 1 receptor (OX1R; HCRTR1): Fluorescence-based cell-based dose response assay for antagonists of the orexin 2 receptor (OX2R; HCRTR2), run by assay provider.; assay type: functional
[7] = HEK293 cell cytotoxicity, dose response, cytotoxicity control, plate reader, cherry-picked samples (AID 743446); assay type: functional, cell-based
[8] = HepG2 cell cytotoxicity, dose response, cytotoxicity control, plate reader, cherry-pick, antagonist series (AID 743416); assay type: functional, cell-based
[9] = MC4R antagonists, dose response, counter-screen for LGR2 antagonist project, cell-based, plate reader, cherry pick (AID 743444); assay type: functional;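 further: transfected HEK 293 cells stimulated with alpha-MSH peptide; potency of inhibitors of the alpha-MSH evoked signal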
[10] = LGR2 antagonists, dose response, cell-based, HEK293, CRE-luciferase reporter, cherry pick, set 2 (AID 743343); assay type: functional;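 further: transfected cells were stimulated with diluted bursicon conditioned medium after compound addition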
[11] = biological target: T3, Sentrin-specific protease 7 (Homo sapiens, UniProt Q9BQF6); assay type: functional;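 further: Luminescence-based dose-response confirmation of ultra-high-throughput screening hits, measuring inhibition of SENP7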
T3 sequence (Q9BQF6 whole entry): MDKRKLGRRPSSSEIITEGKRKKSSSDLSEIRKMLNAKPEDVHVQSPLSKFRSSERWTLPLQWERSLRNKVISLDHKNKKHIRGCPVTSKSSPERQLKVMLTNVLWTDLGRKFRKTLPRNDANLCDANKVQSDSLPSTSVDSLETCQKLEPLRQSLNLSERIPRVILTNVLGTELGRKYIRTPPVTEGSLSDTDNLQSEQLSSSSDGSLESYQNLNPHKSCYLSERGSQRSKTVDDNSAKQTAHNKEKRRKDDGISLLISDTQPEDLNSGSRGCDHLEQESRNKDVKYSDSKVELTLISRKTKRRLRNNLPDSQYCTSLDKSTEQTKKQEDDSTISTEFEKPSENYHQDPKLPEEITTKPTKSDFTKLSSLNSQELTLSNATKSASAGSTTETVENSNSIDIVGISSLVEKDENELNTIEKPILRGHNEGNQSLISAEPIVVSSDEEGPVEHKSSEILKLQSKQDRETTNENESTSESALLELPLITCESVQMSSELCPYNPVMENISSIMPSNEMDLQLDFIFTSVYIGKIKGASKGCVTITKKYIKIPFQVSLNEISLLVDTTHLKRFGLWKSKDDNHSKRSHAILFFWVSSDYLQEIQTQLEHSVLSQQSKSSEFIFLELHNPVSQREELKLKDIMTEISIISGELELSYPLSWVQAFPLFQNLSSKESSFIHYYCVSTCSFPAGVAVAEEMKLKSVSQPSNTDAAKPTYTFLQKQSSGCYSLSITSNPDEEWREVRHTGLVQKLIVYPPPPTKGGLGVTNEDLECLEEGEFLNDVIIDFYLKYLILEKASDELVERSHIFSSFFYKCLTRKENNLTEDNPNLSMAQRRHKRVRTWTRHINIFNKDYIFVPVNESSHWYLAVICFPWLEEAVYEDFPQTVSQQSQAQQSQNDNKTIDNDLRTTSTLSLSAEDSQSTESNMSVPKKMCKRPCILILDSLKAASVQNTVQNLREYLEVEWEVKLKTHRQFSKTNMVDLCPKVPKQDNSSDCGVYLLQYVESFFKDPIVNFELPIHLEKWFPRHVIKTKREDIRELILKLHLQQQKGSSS

[12] = biological target: T4, Sentrin-specific protease 8 (Homo sapiens, UniProt Q96LD8); assay type: functional;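 further: luminescence read-out of SENP8 inhibition, dose-response confirmation following an ultra-high-throughput screen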
T4 sequence (Q96LD8 whole entry): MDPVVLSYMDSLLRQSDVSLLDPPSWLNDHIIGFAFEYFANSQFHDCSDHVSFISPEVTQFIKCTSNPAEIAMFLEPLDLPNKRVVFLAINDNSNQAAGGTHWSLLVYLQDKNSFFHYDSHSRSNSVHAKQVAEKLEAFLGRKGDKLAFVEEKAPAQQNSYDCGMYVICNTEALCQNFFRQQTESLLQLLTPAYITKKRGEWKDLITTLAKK

[13] = biological target: T5, Caspase-3 (Homo sapiens, UniProt P42574); assay type: functional;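 further: Dose-response selectivity test against caspase-3 for candidate inhibitors of sentrin-specific proteases (SENPs)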
T5 sequence (P42574 whole entry): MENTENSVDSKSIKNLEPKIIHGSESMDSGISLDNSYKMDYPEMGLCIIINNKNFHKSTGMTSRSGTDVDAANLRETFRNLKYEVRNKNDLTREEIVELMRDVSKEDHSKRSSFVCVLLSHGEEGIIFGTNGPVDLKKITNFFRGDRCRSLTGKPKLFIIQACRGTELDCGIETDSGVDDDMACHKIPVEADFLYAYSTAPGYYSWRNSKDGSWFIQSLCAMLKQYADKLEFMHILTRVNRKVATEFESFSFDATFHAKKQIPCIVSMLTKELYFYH

[14] = biological target: T6, Sentrin-specific protease 6 (Homo sapiens, UniProt Q9GZR1); assay type: functional;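 further: Luminescence-based dose-response confirmatory assay of SENP6 inhibition, following up an ultra-high-throughput screen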
T6 sequence (Q9GZR1 whole entry): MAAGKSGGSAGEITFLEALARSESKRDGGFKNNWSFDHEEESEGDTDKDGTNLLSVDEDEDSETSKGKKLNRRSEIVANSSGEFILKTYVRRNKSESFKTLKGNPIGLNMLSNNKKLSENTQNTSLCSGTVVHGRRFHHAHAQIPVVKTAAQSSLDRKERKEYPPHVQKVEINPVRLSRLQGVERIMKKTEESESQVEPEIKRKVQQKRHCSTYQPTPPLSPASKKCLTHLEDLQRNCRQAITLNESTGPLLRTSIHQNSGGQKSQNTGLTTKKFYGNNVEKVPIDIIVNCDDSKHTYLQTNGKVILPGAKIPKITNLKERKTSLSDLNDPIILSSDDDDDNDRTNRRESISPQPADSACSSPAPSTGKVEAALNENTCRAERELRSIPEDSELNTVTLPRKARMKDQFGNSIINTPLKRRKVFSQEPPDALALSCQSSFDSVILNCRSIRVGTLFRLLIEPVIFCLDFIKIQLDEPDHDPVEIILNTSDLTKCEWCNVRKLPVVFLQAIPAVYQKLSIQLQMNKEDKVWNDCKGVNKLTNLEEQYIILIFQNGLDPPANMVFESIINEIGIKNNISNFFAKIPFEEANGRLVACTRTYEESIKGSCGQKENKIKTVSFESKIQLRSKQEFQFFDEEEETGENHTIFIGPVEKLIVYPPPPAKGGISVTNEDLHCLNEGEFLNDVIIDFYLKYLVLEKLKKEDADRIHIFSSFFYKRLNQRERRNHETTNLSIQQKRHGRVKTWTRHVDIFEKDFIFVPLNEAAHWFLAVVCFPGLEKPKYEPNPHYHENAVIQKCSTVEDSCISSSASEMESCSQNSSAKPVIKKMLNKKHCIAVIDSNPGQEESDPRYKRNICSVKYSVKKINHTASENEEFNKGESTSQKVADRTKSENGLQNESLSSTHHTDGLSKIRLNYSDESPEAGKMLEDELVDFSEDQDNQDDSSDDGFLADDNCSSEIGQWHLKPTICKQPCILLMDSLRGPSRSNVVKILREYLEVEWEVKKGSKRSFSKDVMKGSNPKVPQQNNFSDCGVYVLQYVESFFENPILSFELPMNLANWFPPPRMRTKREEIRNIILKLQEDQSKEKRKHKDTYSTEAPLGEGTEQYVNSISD

[15] = biological target: Kallikrein-7 (Homo sapiens, UniProt P49862); experiment: Fluorescence Intensity-based biochemical primary high throughput dose response assay to identify activators of kallikrein-7 (K7) zymogen.
Chain of Kallikrein-7 (P49862 whole entry, the tested form may be a part): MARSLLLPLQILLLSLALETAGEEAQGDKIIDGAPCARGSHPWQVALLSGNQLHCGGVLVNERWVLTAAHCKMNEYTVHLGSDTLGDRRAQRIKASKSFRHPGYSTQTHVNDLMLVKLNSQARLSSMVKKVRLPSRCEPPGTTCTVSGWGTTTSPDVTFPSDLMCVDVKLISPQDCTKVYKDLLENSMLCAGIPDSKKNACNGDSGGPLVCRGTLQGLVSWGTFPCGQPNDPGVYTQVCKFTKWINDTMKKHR

[16] = biological target: T7, Fatty acid synthase (Homo sapiens, UniProt P49327); experiment: FAS thioesterase domain inhibitors, dose response, biochemical, kinetic fluorescence intensity (AID 624326); assay type: functional;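 further: rate of fluorescence rise from hydrolysis of a fluorogenic O-methyl fluorescein ester substrate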
T7 sequence (P49327 whole entry, the tested form may be a part): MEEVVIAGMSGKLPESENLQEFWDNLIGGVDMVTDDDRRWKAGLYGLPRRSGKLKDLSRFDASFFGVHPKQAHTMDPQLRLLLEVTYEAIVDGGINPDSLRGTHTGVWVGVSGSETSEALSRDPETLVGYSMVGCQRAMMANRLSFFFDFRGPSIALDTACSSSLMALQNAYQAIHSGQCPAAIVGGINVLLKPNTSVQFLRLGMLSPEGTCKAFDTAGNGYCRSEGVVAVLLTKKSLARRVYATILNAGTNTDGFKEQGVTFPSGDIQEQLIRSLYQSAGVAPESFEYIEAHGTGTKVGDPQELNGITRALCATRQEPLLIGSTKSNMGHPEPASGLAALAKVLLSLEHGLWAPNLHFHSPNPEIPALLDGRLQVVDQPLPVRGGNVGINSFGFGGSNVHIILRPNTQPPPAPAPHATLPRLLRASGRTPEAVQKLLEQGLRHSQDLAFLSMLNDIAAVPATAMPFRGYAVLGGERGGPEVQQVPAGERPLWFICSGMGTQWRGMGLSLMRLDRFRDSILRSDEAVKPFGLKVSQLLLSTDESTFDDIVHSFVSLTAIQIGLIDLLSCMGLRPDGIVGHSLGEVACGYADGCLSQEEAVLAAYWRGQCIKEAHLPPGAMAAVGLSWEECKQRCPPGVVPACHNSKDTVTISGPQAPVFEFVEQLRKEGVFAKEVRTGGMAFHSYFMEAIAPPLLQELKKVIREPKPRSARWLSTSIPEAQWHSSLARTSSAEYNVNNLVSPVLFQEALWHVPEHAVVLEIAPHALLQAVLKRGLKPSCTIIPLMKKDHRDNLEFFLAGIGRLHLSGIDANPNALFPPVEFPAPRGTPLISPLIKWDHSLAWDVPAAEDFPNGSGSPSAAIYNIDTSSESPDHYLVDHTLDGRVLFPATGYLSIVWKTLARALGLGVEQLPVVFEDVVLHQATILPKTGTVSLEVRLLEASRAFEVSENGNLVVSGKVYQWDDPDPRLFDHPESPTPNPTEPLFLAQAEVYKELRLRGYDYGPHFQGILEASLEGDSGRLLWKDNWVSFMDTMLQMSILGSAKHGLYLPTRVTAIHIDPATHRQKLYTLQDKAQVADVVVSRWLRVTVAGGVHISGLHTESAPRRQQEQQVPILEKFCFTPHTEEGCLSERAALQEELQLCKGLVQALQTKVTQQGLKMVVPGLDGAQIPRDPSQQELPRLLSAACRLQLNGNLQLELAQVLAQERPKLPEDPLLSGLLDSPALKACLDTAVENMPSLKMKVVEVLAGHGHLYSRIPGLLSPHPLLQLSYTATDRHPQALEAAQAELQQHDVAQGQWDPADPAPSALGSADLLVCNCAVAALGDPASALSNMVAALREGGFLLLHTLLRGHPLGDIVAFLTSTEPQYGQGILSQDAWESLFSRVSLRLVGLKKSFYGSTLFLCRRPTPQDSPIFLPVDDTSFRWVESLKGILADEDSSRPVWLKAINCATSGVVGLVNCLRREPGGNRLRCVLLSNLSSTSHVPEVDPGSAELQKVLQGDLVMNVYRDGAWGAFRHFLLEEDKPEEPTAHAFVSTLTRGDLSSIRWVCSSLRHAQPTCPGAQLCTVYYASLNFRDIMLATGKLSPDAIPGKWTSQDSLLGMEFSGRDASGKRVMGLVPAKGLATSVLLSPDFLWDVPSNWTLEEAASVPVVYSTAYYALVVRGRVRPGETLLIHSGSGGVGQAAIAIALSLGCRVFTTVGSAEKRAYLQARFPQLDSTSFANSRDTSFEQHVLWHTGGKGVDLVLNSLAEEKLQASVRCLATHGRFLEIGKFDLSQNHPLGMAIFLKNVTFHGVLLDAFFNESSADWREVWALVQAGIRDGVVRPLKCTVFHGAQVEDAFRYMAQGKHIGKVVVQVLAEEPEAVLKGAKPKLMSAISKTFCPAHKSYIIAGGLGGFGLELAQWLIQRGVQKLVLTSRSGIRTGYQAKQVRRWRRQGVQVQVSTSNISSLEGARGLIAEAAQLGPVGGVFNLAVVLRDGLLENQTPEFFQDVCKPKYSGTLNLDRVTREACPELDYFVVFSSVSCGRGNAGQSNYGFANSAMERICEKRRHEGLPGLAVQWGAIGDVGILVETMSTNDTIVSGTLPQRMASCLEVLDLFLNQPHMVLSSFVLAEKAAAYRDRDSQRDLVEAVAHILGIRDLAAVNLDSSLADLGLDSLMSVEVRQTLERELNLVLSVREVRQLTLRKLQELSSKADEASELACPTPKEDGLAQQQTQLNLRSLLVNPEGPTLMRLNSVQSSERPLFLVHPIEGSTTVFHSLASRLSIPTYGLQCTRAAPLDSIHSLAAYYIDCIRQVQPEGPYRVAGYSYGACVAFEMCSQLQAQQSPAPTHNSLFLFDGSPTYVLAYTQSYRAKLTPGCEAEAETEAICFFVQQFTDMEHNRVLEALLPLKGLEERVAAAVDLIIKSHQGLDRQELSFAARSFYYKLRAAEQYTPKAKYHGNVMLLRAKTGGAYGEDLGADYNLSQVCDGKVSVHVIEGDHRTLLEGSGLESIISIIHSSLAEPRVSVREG

[17] = biological target: T7, Fatty acid synthase; experiment: FAS thioesterase domain inhibitors, dose response, biochemical, endpoint fluorescence intensity, uHTS hits (AID 624327); assay type: functional;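 further: fluorescence from hydrolysis of an O-methyl fluorescein acyl ester substrate by the enzyme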
[18] = HEp-2 cell cytotoxicity, dose response, cytotoxicity control for RSV inhibitor project, HTS (AID 2410); assay type: functional; details: human respiratory syncytial virus

Row | SMILES | IC50 [1] | IC50 [2] | IC50 [3] | IC50 [4] | IC50 [5] | IC50 [6] | IC50 [16] | IC50 [17] | other results
1 | CCCCNC(=O)CCC(=O)NNc1nc2ccccc2c2nc(-c3ccccc3)nn12 | 7.27 µM (active) | > 49.8 µM (inactive) | > 50 µM (inactive) | 2.69 µM (active) | > 66.2 µM (inactive) | > 88.8 µM (inactive) | – | – | –
2 | COc1ccc2nc(-c3ccc(F)cc3)sc2c1 | – | – | – | – | – | – | – | – | AC50 [7]: > 52 µM (inactive); AC50 [8]: > 52 µM (inactive); AC50 [9]: 2.35 µM (active); AC50 [10]: 2.55 µM (active)
3 | O=C(Nc1ccc2ccccc2c1)c1cccc(F)c1 | – | – | – | – | – | – | – | – | IC50 [11]: 4.43 µM (active); IC50 [12]: > 100 µM (inactive); IC50 [13]: 18.3 µM (active); IC50 [14]: 5.72 µM (active)
4 | CCOC(=O)c1cc2c(=O)n3ccccc3nc2n(CC2CCCO2)/c1=N/C(=O)/C=C/c1ccccc1 (stereo unspecified) | – | – | – | – | – | – | 3.99 µM (active) | 2.71 µM (active) | EC50 [15]: > 69.5 µM (inactive)
5 | Cc1cc(O)cc2c(=O)c3ccccc3sc12 | 8.54 µM (active) | > 49.8 µM (inactive) | 0.009 µM (active) | 3.64 µM (active) | > 66.3 µM (inactive) | > 88.8 µM (inactive) | – | – | –
6 | CN(Cc1ccccc1)C(=O)c1[nH]cnc1C(=O)N[C@@H](Cc1ccccc1)C(=O)OC(C)(C)C | 5.87 µM (active) | > 49.8 µM (inactive) | > 50 µM (inactive) | 0.515 µM (active) | > 66.2 µM (inactive) | > 88.8 µM (inactive) | – | – | –
7 | O=C(/C=C/c1cccc([N+](=O)[O-])c1)NCCSCc1cccc(Cl)c1 | – | – | – | – | – | – | 7.25 µM (active) | 11.7 µM (active) | CC50 [18]: 14.3 µM (active)
8 | Cc1csc(-c2coc3cc(O)cc(C)c3c2=O)n1 | 10.4 µM (inactive) | > 49.8 µM (inactive) | > 50 µM (inactive) | 2.54 µM (active) | > 66.2 µM (inactive) | > 88.8 µM (inactive) | – | – | –
9 | CN(Cc1cccs1)C(=O)Cn1cnc2cc([N+](=O)[O-])ccc2c1=O | – | – | – | – | – | – | 5.16 µM (active) | 7.81 µM (active) | –
10 | O=c1cc(CN2CC(O)Cc3ccc4ccccc4c32)nc2sccn12 (stereo unspecified) | 3.29 µM (active) | > 49.7 µM (inactive) | > 50 µM (inactive) | 4.12 µM (active) | > 66.2 µM (inactive) | > 88.8 µM (inactive) | – | – | –
